# According to patent US5693642A, “Piperazine derivatives as 5-HT1A ligands” (John Wyeth & Brother Ltd., priority 1993, dated 1997):
# Molecular target: T1, 5-HT1A receptor (Rattus norvegicus, UniProt P19327)
# T1 construct: rat hippocampal membrane homogenate; from tissue; host or cells: rat hippocampal membrane homogenate
# T1 sequence (P19327 1-422): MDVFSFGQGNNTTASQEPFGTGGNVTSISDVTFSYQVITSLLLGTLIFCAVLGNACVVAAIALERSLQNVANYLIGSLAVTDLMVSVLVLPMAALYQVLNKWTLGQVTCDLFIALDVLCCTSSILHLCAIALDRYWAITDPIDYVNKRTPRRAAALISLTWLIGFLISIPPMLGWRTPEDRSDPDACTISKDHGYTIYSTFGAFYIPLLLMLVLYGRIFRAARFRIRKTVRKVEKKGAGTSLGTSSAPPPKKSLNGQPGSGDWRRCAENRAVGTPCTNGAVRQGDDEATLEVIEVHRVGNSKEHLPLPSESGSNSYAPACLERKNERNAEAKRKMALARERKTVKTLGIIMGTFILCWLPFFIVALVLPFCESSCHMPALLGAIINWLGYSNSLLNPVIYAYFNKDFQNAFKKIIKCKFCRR
# Experiment: 5-HT1A receptor binding activity in rat hippocampal membrane homogenate
# Description: The compounds of the invention were tested for 5-HT1A receptor binding activity in rat hippocampal membrane homogenate by the method of B. S. Alexander and M. D. Wood, J Pharm Pharmacol, 1988, 40, 888-891.
row,IC50,SMILES
1,4 nM,"COc1ccccc1N1CCN(C[C@H](c2ccccn2)[C@H](O)C2CCCCC2)CC1 (relative stereo) [Example 1a, R*, R*-1-(2Methoxyphenyl)-4-[(2-propan-(2-pyridinyl)-3-cyclohexyl)-3-ol]piperazine]"
2,4.3 nM,"COc1ccccc1N1CCN(C[C@H](c2ccccn2)[C@@H](O)C2CCCCC2)CC1 (relative stereo) [Example 1b, R*, S*-1-(2-Methoxyphenyl)-4-[(2-propan-(2-pyridinyl)-3-cyclohexyl)-3-ol]piperazine]"
3,2 nM,"COc1ccccc1N1CCN(CC[C@H](c2ccccn2)[C@H](O)C2CCCCC2)CC1 (relative stereo) [Example 2a, R*,R*-1-(2-Methoxyphenyl)-4-[3-butan-(2-pyridinyl)-4-cyclohexyl)-4-ol]piperazine]"
4,1.8 nM,"COc1ccccc1N1CCN(CC[C@H](c2ccccn2)[C@@H](O)C2CCCCC2)CC1 (relative stereo) [Example 2b, R*,S*-1-(2-Methoxyphenyl)-4-[3-butan-(2-pyridinyl)-4-cyclohexyl)-4-ol]piperazine]"
5,15 nM,"COc1ccccc1N1CCN(CCC(c2ccccn2)[S+]([O-])C2CCCCC2)CC1 (single isomer, unassigned) [Example 7, 1-(2-Methoxyphenyl)-4-[3-(cyclohexylsulphoxy)-3-(2-pyridinyl)propyl]piperazine]"
6,2.6 nM,COc1ccccc1N1CCN(CCC(C(=O)C2CCCCC2)c2ccccn2)CC1 (centres unmarked) [Example 3]
7,1.6 nM,COc1ccccc1N1CCN(CCC(CC2CCCCC2)c2ccccn2)CC1 (centres unmarked) [Example 4]
8,4.25 nM,"COc1ccccc1N1CCN(CCC(SC2CCCCC2)c2ccccn2)CC1 (centres unmarked) [Example 6, 1-(2-Methoxyphenyl)-4-[3-(cyclohexylthio)-3-(2-pyridinyl)propyl]piperazine]"
